ChEMBL document CHEMBL4680318, “(S)-Erypoegin K, an isoflavone isolated from Erythrina poeppigiana, is a novel inhibitor of topoisomerase IIα: Induction of G2 phase arrest in human gastric cancer cells” (Bioorg Med Chem, 2021)
The source made the active and inactive calls. The calls are words filed in the database; no cut-off is given here.

Legend:
DMS-273 = assay: Growth inhibition of human DMS-273 cells measured after 48 hrs by sulforhodamine B assay; assay type: functional
[1] = Growth inhibition of human HBC5 cells measured after 48 hrs by sulforhodamine B assay; assay type: functional
MKN-1 [2] = assay: Cell cycle arrest in human MKN-1 cells assessed as accumulation at S phase at 0.3 uM measured after 24 hrs by propidium iodide staining based Muse cell analyzer (reference value: 15.5 +/- 0.2 %); assay type: functional
ACHN = assay: Growth inhibition of human ACHN cells measured after 48 hrs by sulforhodamine B assay; assay type: functional
MKN-1 [3] = assay: Cytotoxicity against human MKN-1 cells assessed as reduction in cell viability measured after 48 hrs by MTS/CellTiter96 aqueous one solution cell proliferation assay; assay type: functional, cell-based; conditions: MKN-1, 48 h
A549 = assay: Growth inhibition of human A549 cells measured after 48 hrs by sulforhodamine B assay; assay type: functional
GCIY [4] = assay: Induction of apoptosis in human GCIY cells assessed as activation of caspase 9 measured after 5 to 35 hrs by fluorescence assay; assay type: functional, cell-based; conditions: dose 1-10 µM, time 5-35 hrs
HCT-116 = assay: Growth inhibition of human HCT-116 cells measured after 48 hrs by sulforhodamine B assay; assay type: functional
GCIY [5] = assay: Induction of apoptosis in human GCIY cells assessed as activation of caspase 9 at 1 to 10 uM by fluorescence assay; assay type: functional, cell-based; conditions: dose 1-10 µM, time 5-35 hrs, TDE = time-dependent effect
MKN-1 [6] = assay: Cell cycle arrest in human MKN-1 cells assessed as accumulation at G2/M phase at 0.1 uM measured after 24 hrs by propidium iodide staining based Muse cell analyzer (reference value: 33.2 +/- 0.5 %); assay type: functional
MKN-1 [7] = assay: Cell cycle arrest in human MKN-1 cells assessed as accumulation at G2/M phase at 0.3 uM measured after 24 hrs by propidium iodide staining based Muse cell analyzer (reference value: 33.2 +/- 0.5 %); assay type: functional
GCIY [8] = assay: Induction of apoptosis in human GCIY cells assessed as activation of caspase 3 measured after 5 to 35 hrs by fluorescence assay; assay type: functional, cell-based; conditions: dose 1-10 µM, time 5-35 hrs
GCIY [9] = assay: Cell cycle arrest in human GCIY cells assessed as accumulation at S phase at 0.1 uM measured after 24 hrs by propidium iodide staining based Muse cell analyzer (reference value: 25.7 +/- 0.7 %); assay type: functional
KM12 = assay: Growth inhibition of human KM12 cells measured after 48 hrs by sulforhodamine B assay; assay type: functional
[10] = target: DNA topoisomerase 2-alpha (Homo sapiens) (UniProt P11388); assay: Inhibition of human DNA topoisomerase 2alpha assessed as suppression of decatenation using catenated kinetoplast DNA as substrate measured after 30 mins by ethidium bromide staining-based UV imaging analysis
[11] = target: DNA topoisomerase 2-alpha (Homo sapiens) (UniProt P11388); assay: Inhibition of human DNA topoisomerase 2alpha assessed as stabilization of DNA cleavage complex at 50 to 200 uM using supercoiled pSL1180 plasmid DNA as substrate measured after 30 mins by ethidium bromide staining-based UV imaging analysis; conditions: dose 50-200 µM
MKN-28 = assay: Growth inhibition of human MKN-28 cells measured after 48 hrs by sulforhodamine B assay; assay type: functional
MKN-1 [12] = assay: Cell cycle arrest in human MKN-1 cells assessed as accumulation at G0/G1 phase at 0.3 uM measured after 24 hrs by propidium iodide staining based Muse cell analyzer (reference value: 49.6 +/- 2.6 %); assay type: functional

Chain of DNA topoisomerase 2-alpha (Homo sapiens) (P11388 whole entry): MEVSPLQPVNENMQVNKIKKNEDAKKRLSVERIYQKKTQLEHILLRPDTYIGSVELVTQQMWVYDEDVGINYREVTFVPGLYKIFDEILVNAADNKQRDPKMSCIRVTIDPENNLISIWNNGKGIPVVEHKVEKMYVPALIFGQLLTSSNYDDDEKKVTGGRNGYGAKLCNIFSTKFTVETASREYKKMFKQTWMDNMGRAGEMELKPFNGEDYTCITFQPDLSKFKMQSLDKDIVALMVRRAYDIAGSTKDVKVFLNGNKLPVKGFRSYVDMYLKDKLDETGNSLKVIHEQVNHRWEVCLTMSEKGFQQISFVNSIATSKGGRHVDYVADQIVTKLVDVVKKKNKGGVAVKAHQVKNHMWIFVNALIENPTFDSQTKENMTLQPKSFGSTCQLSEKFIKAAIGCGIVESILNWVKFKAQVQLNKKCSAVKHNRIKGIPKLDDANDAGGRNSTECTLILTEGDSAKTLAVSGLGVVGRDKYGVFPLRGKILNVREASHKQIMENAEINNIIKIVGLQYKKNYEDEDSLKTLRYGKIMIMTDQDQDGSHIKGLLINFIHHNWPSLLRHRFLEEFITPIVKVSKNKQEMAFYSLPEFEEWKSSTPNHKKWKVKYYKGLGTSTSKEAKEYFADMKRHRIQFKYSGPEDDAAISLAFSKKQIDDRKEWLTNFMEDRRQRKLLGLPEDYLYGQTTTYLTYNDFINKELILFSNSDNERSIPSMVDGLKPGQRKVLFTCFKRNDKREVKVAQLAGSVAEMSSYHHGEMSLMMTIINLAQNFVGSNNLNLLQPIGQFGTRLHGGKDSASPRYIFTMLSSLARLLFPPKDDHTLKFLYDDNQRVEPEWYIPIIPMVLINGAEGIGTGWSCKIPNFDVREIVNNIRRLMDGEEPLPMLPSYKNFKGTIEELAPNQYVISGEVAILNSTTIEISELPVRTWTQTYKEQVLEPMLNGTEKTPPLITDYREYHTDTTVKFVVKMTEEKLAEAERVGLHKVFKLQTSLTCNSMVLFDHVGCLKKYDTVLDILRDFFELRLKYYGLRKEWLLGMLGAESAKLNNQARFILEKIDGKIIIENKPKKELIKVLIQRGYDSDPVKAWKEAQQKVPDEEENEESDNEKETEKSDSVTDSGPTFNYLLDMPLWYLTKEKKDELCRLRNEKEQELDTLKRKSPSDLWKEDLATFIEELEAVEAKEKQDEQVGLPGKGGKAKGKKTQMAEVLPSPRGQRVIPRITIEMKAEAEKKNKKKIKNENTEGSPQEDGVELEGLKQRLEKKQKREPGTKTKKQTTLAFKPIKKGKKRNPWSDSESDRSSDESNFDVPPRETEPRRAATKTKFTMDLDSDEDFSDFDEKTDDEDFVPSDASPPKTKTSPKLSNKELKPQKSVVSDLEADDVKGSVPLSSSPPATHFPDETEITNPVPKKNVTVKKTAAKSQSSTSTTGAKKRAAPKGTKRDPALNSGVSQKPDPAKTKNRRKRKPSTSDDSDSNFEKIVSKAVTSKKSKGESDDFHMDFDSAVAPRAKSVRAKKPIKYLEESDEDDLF

GI50 (ACHN): 182 nM
GI50 (A549): 120 nM
GI50 (HCT-116): 1070 nM
inhibition [10]: Active
inhibition [11]: Active
GI50 (MKN-28): 7080 nM
Structure (SMILES): CC(C)(O)[C@@H]1Cc2c(cc(O)c3c(=O)c(-c4ccc(O)cc4)coc23)O1
GI50 (DMS-273): 195 nM
GI50 [1]: 6760 nM
Activity (MKN-1 [2]): 9.5%
IC50 (MKN-1 [3]): 327 nM
Activity (GCIY [4]): Dose-dependent effect
Activity (GCIY [5]): Tde
Activity (MKN-1 [6]): 60.8%
Activity (MKN-1 [7]): 83.6%
Activity (GCIY [8]): Dose-dependent effect
Activity (GCIY [9]): 22.4%
GI50 (KM12): 813 nM
Activity (MKN-1 [12]): 4.9%
